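96-well plates; 48 h exposure; 5 concentrations. Endpoints by linear interpolation between flanking doses. Not reached: highest tested concentration assigned. TGI: total growth inhibition.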
Legend:
Assay in all cases: NCI anticancer screen, dose series, 48 h
RPMI-8226 leukemia = tested on: RPMI-8226 leukemia
NCI-H23 lung = tested on: NCI-H23 lung
SNB-75 CNS = tested on: SNB-75 CNS
SK-MEL-2 melanoma = tested on: SK-MEL-2 melanoma
UACC-257 melanoma = tested on: UACC-257 melanoma
OVCAR-4 ovarian = tested on: OVCAR-4 ovarian
RXF 393 renal = tested on: RXF 393 renal
HCT-15 colon = tested on: HCT-15 colon

| Structure (SMILES) | TGI (RPMI-8226 leukemia) [µM] | TGI (NCI-H23 lung) [µM] | TGI (SNB-75 CNS) [µM] | TGI (SK-MEL-2 melanoma) [µM] | TGI (UACC-257 melanoma) [µM] | TGI (OVCAR-4 ovarian) [µM] | TGI (RXF 393 renal) [µM] | TGI (HCT-15 colon) [µM] |
| --- | --- | --- | --- | --- | --- | --- | --- | --- |
| CC(C)N1CCC2(CC1)NNc1ncccc1-n1cccc12 | > 100 | > 100 | > 100 | > 100 | > 100 | > 100 |  |  |
| CN(C)C(=S)/N=c1\ss/c(=N\C(=S)N(C)C)n1-c1ccc(Cl)cc1 | > 100 | > 100 | > 100 | > 100 | > 100 |  | > 100 | > 100 |
| CCOC(=O)[C@H]1CSC[C@@H](C(=O)OC)N1 | > 100 | > 100 | > 100 | > 100 | > 100 | > 100 | > 100 | > 100 |
| COC(=O)c1ccc(NC(=O)c2cc(OC)c(OC)c(OC)c2)cc1 |  |  | > 100 | > 100 |  | > 100 | 77.2 |  |
| O=C(O)C(C(=O)C(=O)C(C(=O)O)c1ccc(Cl)cc1)c1ccc(Cl)cc1 (stereo not drawn) | 5.91 | 5.6 | 8.89 |  | 11.4 | 6.96 | 8.37 |  |
| O=c1cc(-c2ccccc2)nc(/C=C(\O)c2ccncc2)n1-c1ccccc1 |  | > 100 | > 100 | > 100 | > 100 | > 100 | > 100 | > 100 |
| COc1ccc(OC)c(NCC#N)c1 | > 100 | > 100 | > 100 | > 100 | > 100 | > 100 | > 100 | > 100 |
| CC(=O)Nc1ccc(-c2nnc(SCC(=O)Nc3cccc([N+](=O)[O-])c3)o2)cc1 | 75.8 | 21.2 | 32.9 | 37.2 | 51.4 | 25.3 | 25.7 | 46.2 |
| COc1cc2cc3c4c(cc(OC)c(OC)c4c2cc1OC)CCN3C(=O)N(C)C | > 100 | > 10 | > 100 | > 100 | > 100 | > 100 | > 100 | > 100 |
| CCOc1ccccc1N1C(=O)C(=O)C(c2nc3ccccc3o2)/C(=N\N)C1=O (stereo not drawn) | > 100 | > 100 | > 100 | > 100 | > 100 | > 100 | > 100 | > 100 |
| NC(=O)C(=Cc1ccc(CP(=O)(O)O)cc1)C(N)=O | > 100 | > 100 | > 100 | > 100 | > 100 | > 100 | > 100 | > 100 |

Reference: PubChem BioAssay (NCI)
